# Measurements: patent US11191804B2, “Cytocidal agent” (FUJITA ACADEMY, priority 2018, dated 2021)
# Where no end group is shown, it is not given here. [ ]: non-standard residue; d: D form.
# Legend:
# [1] = Body weight of endometriosis model mice after single intraperitoneal administration; assay type: in vivo, mouse; conditions: for Body Weight, 7th day: 7 days after cell transplantation, before peptide administration (baseline); for Body Weight, 7th day / Body Weight, 8th day: mean ± standard error
# Description: Seven days after the A431-CNGB3-myc cells were intraperitoneally transplanted, 0.5 mL of physiological saline solution warmed to 37° C. was intraperitoneally administered to an endometriosis model mouse under isoflurane anesthesia, followed by performing massage. Immediately after the massage, a solution of the K14D-H5D peptide dissolved in physiological saline was intraperitoneally administered. The K14D-H5D peptide was administered at a dose of 0 mg/10 mL/kg (control) (n=7), 5 mg/10 mL/kg (n=8), or 10 mg/10 mL/kg (n=8) per mouse body weight
# Each mouse was weighed 7 days after the A431-CNGB3-myc cells were intraperitoneally transplanted, before K14D-H5D peptide administration and before exsanguination.
# The mouse group in which the dose of the K14D-H5D peptide per mouse body weight was 0 mg/10 mL/kg was represented as G1 group, the mouse group in which the dose of the K14D-H5D peptide per mouse body weight was 5 mg/10 mL/kg was represented as G2 group, and the mouse group in which the dose of the K14D-H5D peptide per mouse body weight was 10 mg/10 mL/kg was represented as G3 group. […] In the Table, “7th day” in the “Body Weight” column is the body weight 7 days after the intraperitoneal transplantation of the A431-CNGB3-myc cells, which was before the administration of the K14D-H5D peptide, and “8th day” is the body weight 24 hours after the administration of the K14D-H5D peptide.
# A431-CNGB3-myc cells = assay: Cytocidal activity by ATP amount (CellTiter-Glo assay kit); assay type: cell-based, human; conditions: peptide 2.34 to 300.0 μM, 24 hours, FIG. 1
# Description: A transformed cell (A431-CNGB3-myc cell) obtained by introducing a gene encoding human CNGB3, in which an myc tag was fused in a C-terminal, into an A431 cell (human epithelial-like cell cancer-derived cell strain) and forcibly expressing thereof was prepared as an endometriosis model cell.
# (§1) The cytocidal activity of each peptide was evaluated by measuring the ATP amount in the cells treated with each peptide using CellTiter-Glo (registered trademark) assay kit (manufactured by Promega).
# (§2) Specifically, first, the A431-CNGB3-myc cells or the OVCAR3-Luc cells after 3 to 4 passages were seeded in a 96-well plate (manufactured by Corning/Costar, Lot No. 00515003) so as to adjust the cell concentration to 1×10^4 cells/well. […] Luminescence (RLU: RELATIVE LIGHT UNITS) of each reaction solution after standing at room temperature was measured using a Synergy H1 hybrid multimode microplate reader (manufactured by BioTek). The luminescence intensity of the reaction solution is an index of the ATP amount. The smaller the luminescence intensity of the reaction solution, the smaller the ATP amount and the stronger the cytocidal activity of the administered peptide. All trials were measured in triplicate, and the average value thereof was taken as the emission intensity (RLU) of each reaction solution. […]
# OVCAR3-Luc cells = assay: as above; assay type: cell-based
# Description: The tumor tissue to be transplanted to the mouse was prepared by culturing an ovarian cancer cell line (OVCAR3-Luc cells, transferred from another facility) into which the luciferase gene had been introduced, and used. The OVCAR3-Luc cells were cultured in a culture medium containing a RPMI medium 1640 (11875-093: manufactured by Gibco) containing 10% inactivated FBS (manufactured by Corning) at 37° C. and under a 5 vol % carbon dioxide environment. Passaging was carried out every 2-3 days.
# as §1
# as §2, with “peptide.” for “peptide. All trials were measured in triplicate, and the average value thereof was taken as the emission intensity (RLU) of each reaction solution.”
compound,measurement,setting,value
"CC(C)C[C@@H](NC(=O)[C@@H](Cc1c[nH]cn1)NC(=O)[C@@H](C)NC(=O)[C@@H](CC(C)C)NC(=O)[C@@H](Cc1c[nH]cn1)NC(=O)[C@@H](CCCCN)NC(=O)[C@@H](C)NC(=O)[C@@H](CC(C)C)NC(=O)[C@@H](CCCCN)NC(=O)[C@@H](C)NC(=O)[C@@H](CC(C)C)NC(=O)[C@@H](CCCCN)NC(=O)[C@@H](CCCCN)NC(=O)[C@@H](C)NC(=O)[C@@H](CC(C)C)NC(=O)[C@@H](CCCCN)NC(=O)[C@@H](C)NC(=O)[C@@H](CC(C)C)NC(=O)[C@H](N)CCCCN)C(=O)O [Peptide K14D-H5D, KLAKLAK-KLAKLAK-HLAHL]",change in body weight,"[1]; 5 or 10 mg/10 mL/kg single i.p., 24 hours after administration, depending on the dose",slight decrease
same,"Body Weight, 7th day","[1]; G2 group, 5 mg/10 mL/kg i.p.",20.1 ± 0.4 g
same,"Body Weight, 8th day","[1]; G2 group, 5 mg/10 mL/kg single i.p., 24 hours after administration",19.2 ± 0.5 g
same,"Body Weight, 7th day","[1]; G3 group, 10 mg/10 mL/kg i.p.",20.0 ± 0.4 g
same,"Body Weight, 8th day","[1]; G3 group, 10 mg/10 mL/kg single i.p., 24 hours after administration",17.5 ± 0.3 g
"KLAKLAK-HLAHLAH-HLAHLAH-HLAH ([dK][dL][dA][dK][dL][dA][dK][dH][dL][dA][dH][dL][dA][dH][dH][dL][dA][dH][dL][dA][dH][dH][dL][dA][dH]) [Peptide K7D-H18D, reference compound]",relative ATP amount (%) / cytocidal activity,A431-CNGB3-myc cells,decreased in a dose-dependent manner
same,relative ATP amount (%) / cytocidal activity,"OVCAR3-Luc cells; OVCAR3-Luc cells, peptide 2.34 to 300.0 μM, 24 hours, FIG. 2",decreased in a dose-dependent manner
"KLAKLAK-KLAKLAK-HLAHL-VRRADNRPG (KLAKLAKKLAKLAKHLAHLVRRADNRPG; not fully specified (some residues); printed as KLAKLAK-KLAKLAK-HLAHL-VRRADNRPG; also: D-amino acids, positions not given here) [Peptide K14D-H5D-Z13]",cytocidal activity compared with the K14D-H5D peptide,"OVCAR3-Luc cells; OVCAR3-Luc cells having no CNGB3 on the cell surface, FIG. 3",the same cytocidal activity
